Results on 27 compounds are retold here after patent US9433622B2, “Pyrimidine compounds useful in the treatment of diseases mediated by IKKE and/or TBK1 mechanisms” (DOMAINEX LIMITED, priority 2013, dated 2016).

The target in test [1] is IKKε (Homo sapiens (Human), UniProt Q14164). The test is described as follows: Lanthascreen TR-FRET kinase inhibition assay, IKKε. It counts as biochemical. To be noted: 20 μM ATP (apparent Km), 2 nM kinase, 1 h. An outline of the steps:
(§1)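 TR-FRET: terbium phosphospecific antibody detects phosphorylation of 400 nM fluorescein-IkBα peptide, 20 μM ATP, 20 °C, HEPES pH 7.5 with 3% DMSO. IKKε at 2 nM, 1 h reaction; TBK1 at 8 nM, 2.5 h reaction; started by kinase addition.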

For test [2], the target named is TBK1 (Homo sapiens (Human), UniProt Q9UHD2). The experiment in a line: Lanthascreen TR-FRET kinase inhibition assay, TBK1. The class given is biochemical. To be noted: 20 μM ATP (apparent Km), 8 nM kinase, 2.5 h. In a few lines: as §1
Sequence of TBK1 (Q9UHD2 whole entry): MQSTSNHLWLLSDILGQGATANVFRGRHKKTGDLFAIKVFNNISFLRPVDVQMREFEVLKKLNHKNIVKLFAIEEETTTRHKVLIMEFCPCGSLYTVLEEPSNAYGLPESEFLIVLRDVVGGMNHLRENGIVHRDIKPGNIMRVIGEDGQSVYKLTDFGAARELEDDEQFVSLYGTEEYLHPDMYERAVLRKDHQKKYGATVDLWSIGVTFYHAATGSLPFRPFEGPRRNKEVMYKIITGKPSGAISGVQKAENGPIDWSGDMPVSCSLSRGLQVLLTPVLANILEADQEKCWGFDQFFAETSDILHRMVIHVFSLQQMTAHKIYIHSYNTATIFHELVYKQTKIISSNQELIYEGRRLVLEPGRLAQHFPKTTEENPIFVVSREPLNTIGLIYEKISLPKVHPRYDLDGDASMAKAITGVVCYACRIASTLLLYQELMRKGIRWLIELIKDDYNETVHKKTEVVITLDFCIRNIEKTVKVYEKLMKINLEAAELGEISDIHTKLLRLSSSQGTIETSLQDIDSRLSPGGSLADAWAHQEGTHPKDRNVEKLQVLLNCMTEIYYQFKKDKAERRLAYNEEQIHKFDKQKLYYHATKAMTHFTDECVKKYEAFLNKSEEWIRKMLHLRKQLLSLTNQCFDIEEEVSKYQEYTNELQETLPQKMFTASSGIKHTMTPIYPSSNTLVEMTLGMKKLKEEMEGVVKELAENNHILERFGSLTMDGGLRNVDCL

Sequence of IKKε (Q14164 whole entry): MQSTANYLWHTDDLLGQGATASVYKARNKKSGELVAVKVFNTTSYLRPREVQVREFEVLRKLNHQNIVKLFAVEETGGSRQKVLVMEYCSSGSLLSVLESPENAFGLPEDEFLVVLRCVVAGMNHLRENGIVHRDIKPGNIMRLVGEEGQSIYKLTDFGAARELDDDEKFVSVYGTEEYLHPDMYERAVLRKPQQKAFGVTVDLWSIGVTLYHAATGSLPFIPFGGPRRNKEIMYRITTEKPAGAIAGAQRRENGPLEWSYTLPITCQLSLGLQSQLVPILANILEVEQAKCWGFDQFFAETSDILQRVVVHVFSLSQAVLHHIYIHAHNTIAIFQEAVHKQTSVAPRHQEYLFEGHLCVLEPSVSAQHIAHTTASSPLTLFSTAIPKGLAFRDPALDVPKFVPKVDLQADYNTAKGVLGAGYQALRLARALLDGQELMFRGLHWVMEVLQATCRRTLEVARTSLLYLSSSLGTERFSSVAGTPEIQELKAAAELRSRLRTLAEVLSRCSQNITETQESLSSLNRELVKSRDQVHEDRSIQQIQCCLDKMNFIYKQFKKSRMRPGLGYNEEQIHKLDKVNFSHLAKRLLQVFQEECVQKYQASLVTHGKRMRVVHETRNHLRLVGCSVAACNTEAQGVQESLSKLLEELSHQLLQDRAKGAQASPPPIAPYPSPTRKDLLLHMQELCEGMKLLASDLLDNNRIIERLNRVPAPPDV

For the compound `Cc1nccn1Cc1ccc(Nc2nccc(-c3cnc(N4CC[C@H](F)C4)c(C#N)c3)n2)cn1` [DMX-81, 2-((S)-3-Fluoro-pyrrolidin-1-yl)-5-{2-[6-(2-methyl-imidazol-1-ylmethyl)-pyridin-3-ylamino]-pyrimidin-4-yl}-nicotinonitrile], the IC50 in test [1] and in test [2] was less than 30 nM each time.

Consider `COCCN(C)Cc1ccc(Nc2nccc(-c3cnc(N4CC[C@H](F)C4)c(C#N)c3)n2)cn1` [DMX-82, 2-((S)-3-Fluoro-pyrrolidin-1-yl)-5-[2-(6-{[(2-methoxy-ethyl)-methyl-amino]-methyl}-pyridin-3-ylamino)-pyrimidin-4-yl]-nicotinonitrile], for which the IC50 in test [1] and in test [2] was less than 100 nM throughout.

`COC1CN(Cc2ccc(Nc3nccc(-c4cnc(N5CC[C@H](F)C5)c(C#N)c4)n3)cn2)C1` [DMX-83, 2-((S)-3-Fluoro-pyrrolidin-1-yl)-5-{2-[6-(3-methoxy-azetidin-1-ylmethyl)-pyridin-3-ylamino]-pyrimidin-4-yl}-nicotinonitrile]: the IC50 in test [1] and in test [2] was less than 30 nM in each case.

In the case of `N#Cc1cc(-c2ccnc(Nc3ccc(CN4CCOCC4)nc3)n2)cnc1N1CCCOCC1` [DMX-84, 5-[2-(6-Morpholin-4-ylmethyl-pyridin-3-ylamino)-pyrimidin-4-yl]-2-[1,4]oxazepan-4-yl-nicotinonitrile], the IC50 in test [1] and in test [2] was less than 100 nM throughout.

Regarding `N#Cc1cc(-c2ccnc(Nc3ccc(NC(=O)CN4CCOCC4)nc3)n2)cnc1N1CCCOCC1` [DMX-85, N-{5-[4-(5-Cyano-6-[1,4]oxazepan-4-yl-pyridin-3-yl)-pyrimidin-2-ylamino]-pyridin-2-yl}-2-morpholin-4-yl-acetamide], the IC50 in test [1] and in test [2] was less than 100 nM in each case.

Turning to `N#Cc1cc(-c2nc(Nc3ccc(NC(=O)CN4CCOCC4)nc3)ncc2F)cnc1N1CCCOCC1` [DMX-86, N-{5-[4-(5-Cyano-6-[1,4]oxazepan-4-yl-pyridin-3-yl)-5-fluoro-pyrimidin-2-ylamino]-pyridin-2-yl}-2-morpholin-4-yl-acetamide], the results for the IC50 in test [1] and in test [2] were less than 1000 nM and less than 100 nM, respectively.

As for `N#Cc1cc(-c2nc(Nc3ccc(CN4CCOCC4)nc3)ncc2F)cnc1N1CCCOCC1` [DMX-87, 5-[5-Fluoro-2-(6-morpholin-4-ylmethyl-pyridin-3-ylamino)-pyrimidin-4-yl]-2-[1,4]oxazepan-4-yl-nicotinonitrile], the concentration for half-maximal inhibition (IC50) in test [1] and in test [2] was less than 100 nM each time.

For `N#Cc1cc(-c2nc(Nc3ccc(NC(=O)CN4CCOCC4)nc3)ncc2F)cnc1N1CC[C@H](F)C1` [DMX-88, N-(5-{4-[5-Cyano-6-((S)-3-fluoro-pyrrolidin-1-yl)-pyridin-3-yl]-5-fluoro-pyrimidin-2-ylamino}-pyridin-2-yl)-2-morpholin-4-yl-acetamide], the IC50 in test [1] and in test [2] was less than 100 nM each time.

`N#Cc1cc(-c2nc(Nc3ccc(CN4CCOCC4)nc3)ncc2F)cnc1N1CC[C@H](F)C1` [DMX-89, 5-[5-Fluoro-2-(6-morpholin-4-ylmethyl-pyridin-3-ylamino)-pyrimidin-4-yl]-2-((S)-3-fluoro-pyrrolidin-1-yl)-nicotinonitrile]: the IC50 in test [1] is less than 30 nM; in test [2], less than 15 nM.

For `N#Cc1cc(-c2ccnc(Nc3ccc(CN4CCOCC4)nc3)n2)cnc1N1CCC2(COC2)C1` [DMX-92, 5-[2-(6-Morpholin-4-ylmethyl-pyridin-3-ylamino)-pyrimidin-4-yl]-2-(2-oxa-6-aza-spiro[3.4]oct-6-yl)-nicotinonitrile], the figures for the concentration for half-maximal inhibition (IC50) in test [1] and in test [2] were less than 30 nM and less than 100 nM, respectively.

As to `N#Cc1cc(-c2ccnc(Nc3ccnc(NC(=O)CN4CCOCC4)c3)n2)cnc1N1CCC2(COC2)C1` [DMX-93, N-(4-{4-[5-Cyano-6-(2-oxa-6-aza-spiro[3.4]oct-6-yl)-pyridin-3-yl]-pyrimidin-2-ylamino}-pyridin-2-yl)-2-morpholin-4-yl-acetamide], the 50% inhibitory concentration (IC50) in test [1] and in test [2] was less than 100 nM each time.

As for `N#Cc1cc(-c2nc(Nc3ccnc(NC(=O)CN4CCOCC4)c3)ncc2F)cnc1N1CCCOCC1` [DMX-94, N-{4-[4-(5-Cyano-6-[1,4]oxazepan-4-yl-pyridin-3-yl)-5-fluoro-pyrimidin-2-ylamino]-pyridin-2-yl}-2-morpholin-4-yl-acetamide], the IC50 in test [1] is less than 1000 nM; in test [2], less than 100 nM.

Take `COCCNc1cc(Nc2ncc(F)c(-c3cnc(N4CCCOCC4)c(C#N)c3)n2)ccn1` [DMX-95, 5-{5-Fluoro-2-[2-(2-methoxy-ethylamino)-pyridin-4-ylamino]-pyrimidin-4-yl}-2-[1,4]oxazepan-4-yl-nicotinonitrile]: the half-maximal inhibitory concentration (IC50) in test [1] is less than 1000 nM; in test [2] it was less than 100 nM.

On to `CC(c1ccc(Nc2nccc(-c3cnc(N4CC[C@H](F)C4)c(C#N)c3)n2)cn1)N1CCOCC1` (stereo partly drawn) [DMX-96, 2-((S)-3-Fluoro-pyrrolidin-1-yl)-5-{2-[6-(1-morpholin-4-yl-ethyl)-pyridin-3-ylamino]-pyrimidin-4-yl}-nicotinonitrile], for which the results for the half-maximal inhibitory concentration (IC50) in test [1] and in test [2] were less than 30 nM and less than 15 nM, respectively.

For `CO[C@H]1CCN(Cc2ccc(Nc3nccc(-c4cnc(N5CC[C@H](F)C5)c(C#N)c4)n3)cn2)C1` [DMX-97, 2-((S)-3-Fluoro-pyrrolidin-1-yl)-5-{2-[6-((S)-3-methoxy-pyrrolidin-1-ylmethyl)-pyridin-3-ylamino]-pyrimidin-4-yl}-nicotinonitrile], the IC50 was less than 100 nM in test [1] and less than 30 nM in test [2].

Take `CS(=O)(=O)CCNCc1ccc(Nc2nccc(-c3cnc(N4CC[C@H](F)C4)c(C#N)c3)n2)cn1` [DMX-98, 2-((S)-3-Fluoro-pyrrolidin-1-yl)-5-(2-{6-[(2-methanesulfonyl-ethylamino)-methyl]-pyridin-3-ylamino}-pyrimidin-4-yl)-nicotinonitrile]: the IC50 in test [1] and in test [2] was less than 30 nM in each case.

As for `N#Cc1cc(-c2ccnc(Nc3ccnc(CN4CCOCC4)c3)n2)cnc1N1CC[C@H](F)C1` [DMX-99, 2-((S)-3-Fluoro-pyrrolidin-1-yl)-5-[2-(2-morpholin-4-ylmethyl-pyridin-4-ylamino)-pyrimidin-4-yl]-nicotinonitrile], the IC50 in test [1] is less than 30 nM; in test [2], less than 15 nM.

As for `N#Cc1cc(-c2ccnc(Nc3cncc(CN4CCOCC4)c3)n2)cnc1N1CC[C@H](F)C1` [DMX-100, 2-((S)-3-Fluoro-pyrrolidin-1-yl)-5-[2-(5-morpholin-4-ylmethyl-pyridin-3-ylamino)-pyrimidin-4-yl]-nicotinonitrile], the IC50 in test [1] and in test [2] was less than 30 nM in each case.

In the case of `CN(CCO)c1cc(Nc2nccc(-c3cnc(N4CC[C@H](F)C4)c(C#N)c3)n2)ccn1` [DMX-101, 2-((S)-3-Fluoro-pyrrolidin-1-yl)-5-(2-{2-[(2-hydroxy-ethyl)-methyl-amino]-pyridin-4-ylamino}-pyrimidin-4-yl)-nicotinonitrile], the IC50 in test [1] and in test [2] was less than 30 nM throughout.

In the case of `N#Cc1cc(-c2ccnc(Nc3ccc(CN4CCNC(=O)C4)nc3)n2)cnc1N1CC[C@H](F)C1` [DMX-102, 2-((S)-3-Fluoro-pyrrolidin-1-yl)-5-{2-[6-(3-oxo-piperazin-1-ylmethyl)-pyridin-3-ylamino]-pyrimidin-4-yl}-nicotinonitrile], the half-maximal inhibitory concentration (IC50) in test [1] and in test [2] was less than 15 nM in each case.

With `N#Cc1cc(-c2ccnc(Nc3ccc(CN4CCCOCC4)nc3)n2)cnc1N1CC[C@H](F)C1` [DMX-103, 2-((S)-3-Fluoro-pyrrolidin-1-yl)-5-[2-(6-[1,4]oxazepan-4-ylmethyl-pyridin-3-ylamino)-pyrimidin-4-yl]-nicotinonitrile], the half-maximal inhibitory concentration (IC50) in test [1] and in test [2] was less than 100 nM throughout.

On to `CN(CCO)Cc1ccc(Nc2nccc(-c3cnc(N4CC[C@H](F)C4)c(C#N)c3)n2)cn1` [DMX-104, 2-((S)-3-Fluoro-pyrrolidin-1-yl)-5-[2-(6-{[(2-hydroxy-ethyl)-methyl-amino]-methyl}-pyridin-3-ylamino)-pyrimidin-4-yl]-nicotinonitrile], for which the half-maximal inhibitory concentration (IC50) in test [1] and in test [2] was less than 100 nM throughout.

With `COCCNCc1cncc(Nc2nccc(-c3cnc(N4CC[C@H](F)C4)c(C#N)c3)n2)c1` [DMX-106, 2-((S)-3-Fluoro-pyrrolidin-1-yl)-5-(2-{5-[(2-methoxy-ethylamino)-methyl]-pyridin-3-ylamino}-pyrimidin-4-yl)-nicotinonitrile], the concentration for half-maximal inhibition (IC50) in test [1] and in test [2] was less than 100 nM in each case.

Turning to `N#Cc1cc(-c2ccnc(Nc3cncc(NC(=O)CN4CCOCC4)c3)n2)cnc1N1CC[C@H](F)C1` [DMX-108, N-(5-{4-[5-Cyano-6-((S)-3-fluoro-pyrrolidin-1-yl)-pyridin-3-yl]-pyrimidin-2-ylamino}-pyridin-3-yl)-2-morpholin-4-yl-acetamide], the concentration for half-maximal inhibition (IC50) in test [1] was less than 100 nM; in test [2], less than 30 nM.

For `N#Cc1cc(-c2ccnc(Nc3cnc4c(c3)CNC4)n2)cnc1N1CC[C@H](F)C1` [DMX-109, 5-[2-(6,7-Dihydro-5H-pyrrolo[3,4-b]pyridin-3-ylamino)-pyrimidin-4-yl]-2-((S)-3-fluoro-pyrrolidin-1-yl)-nicotinonitrile], the values for the half-inhibitory concentration (IC50) in test [1] and in test [2] were less than 30 nM and less than 100 nM, respectively.

For `CC1(O)CN(Cc2ccc(Nc3nccc(-c4cnc(N5CC[C@H](F)C5)c(C#N)c4)n3)cn2)C1` [DMX-110, 2-((S)-3-Fluoro-pyrrolidin-1-yl)-5-{2-[6-(3-hydroxy-3-methyl-azetidin-1-ylmethyl)-pyridin-3-ylamino]-pyrimidin-4-yl}-nicotinonitrile], the results for the IC50 in test [1] and in test [2] were less than 30 nM and less than 100 nM, respectively.

Take `N#Cc1cc(-c2ccnc(Nc3ccnc(NC(=O)CN4CCOCC4)c3)n2)cnc1N1CC[C@@H](F)C1` [DMX-111, N-(4-{4-[5-Cyano-6-((R)-3-fluoro-pyrrolidin-1-yl)-pyridin-3-yl]-pyrimidin-2-ylamino}-pyridin-2-yl)-2-morpholin-4-yl-acetamide]: the figures for the concentration for half-maximal inhibition (IC50) in test [1] and in test [2] were less than 30 nM and less than 15 nM, respectively.
